Data reported in US10669240B2, “5-substituted indazole-3-carboxamides and preparation and use thereof” (Samumed, LLC, priority 2014, dated 2020).

Each molecule was assayed against DYRK1A (Homo sapiens (Human), UniProt Q13627) (assay: DYRK1A activity Tau assay: pSer396 Tau in SH-SY5Y cells by ELISA / western blot). Conditions: overnight (16-18 h) exposure.
Type: cell-based
Source text: In another example, in vitro assays for DYRK1A biological activity may be used, e.g. regulation of microtubule-associated protein tau (MAPT/Tau) phosphorylation in neuronal cell line such as the human SH-SY5Y neuroblastoma cell line. Assays for DYRK1a-regulated level of phosphorylation can include monitoring levels of basal pSer396 Tau, which can be measured, for example, by serial dilutions of a candidate inhibitor composition using a ten micromolar top concentration and detected by ELISA or Western Blotting. An exemplary assay for DYRK-1a-regulated phosphorylation uses the SH-SY5Y cells cultured in a 96 well plate format for a period of time sufficient to stabilize microtubules and Tau phosphorylation, usually at least 2 days, then treated with a 1/3 serial dilution of compounds overnight and lysed. The cell lysate is resolved by SDS PAGE, then transferred to nitrocellulose and probed with an antibody specific for pSer396 Tau.
In a further example, the activity of a candidate compound can be measured by ELISA by adding the lysate mentioned above onto total Tau-coated plates and detected with a specific pSer396 antibody.

| Compound | EC50 [nM] |
| --- | --- |
| O=C(NC1CCCCC1)c1n[nH]c2ccc(-c3cncnc3)cc12 [Compound 1281, N-Cyclohexyl-5-(pyrimidin-5-yl)-1H-indazole-3-carboxamide] | 64 |
| O=C(NC1CCCCC1)c1n[nH]c2ccc(-c3cncc(F)c3)cc12 [Compound 1282, N-Cyclohexyl-5-(5-fluoropyridin-3-yl)-1H-indazole-3-carboxamide] | 22 |
| O=C(NC1CCC(F)(F)CC1)c1n[nH]c2ccc(-c3cncc(F)c3)cc12 [Compound 1284, N-(4,4-Difluorocyclohexyl)-5-(5-fluoropyridin-3-yl)-1H-indazole-3-carboxamide] | 17 |
| CN1CC2(CCC(NC(=O)c3n[nH]c4ccc(-c5cncc(F)c5)cc34)CC2)C1 [Compound 1289, 5-(5-Fluoropyridin-3-yl)-N-(2-methyl-2-azaspiro[3.5]nonan-7-yl)-1H-indazole-3-carboxamide] | 29 |
| CN1CCC(NC(=O)c2n[nH]c3cc(F)c(-c4cccnc4)cc23)CC1 [Compound 1290, 6-Fluoro-N-(1-methylpiperidin-4-yl)-5-(pyridin-3-yl)-1H-indazole-3-carboxamide] | 21 |
| CCN1CCC(NC(=O)c2n[nH]c3ccc(-c4cncc5ccccc45)cc23)CC1 [Compound 1292, N-(1-Ethylpiperidin-4-yl)-5-(isoquinolin-4-yl)-1H-indazole-3-carboxamide] | 74 |
| CCN1CCC(NC(=O)c2n[nH]c3ccc(-c4cnc5ccccc5c4)cc23)CC1 [Compound 1294, N-(1-Ethylpiperidin-4-yl)-5-(quinolin-3-yl)-1H-indazole-3-carboxamide] | 238 |
| CCN1CCC(NC(=O)c2n[nH]c3ccc(-c4cnc5ccc(F)cc5c4)cc23)CC1 [Compound 1295, N-(1-Ethylpiperidin-4-yl)-5-(6-fluoroquinolin-3-yl)-1H-indazole-3-carboxamide] | 340 |
| CC(C)N1CCC(NC(=O)c2n[nH]c3cc(Cl)c(-c4cccnc4)cc23)CC1 [Compound 1304, 6-Chloro-N-(1-isopropylpiperidin-4-yl)-5-(pyridin-3-yl)-1H-indazole-3-carboxamide] | 96 |
| CC(C)CN1CCC(NC(=O)c2n[nH]c3cc(F)c(-c4cccnc4)cc23)CC1 [Compound 1308, 6-Fluoro-N-(1-isobutylpiperidin-4-yl)-5-(pyridin-3-yl)-1H-indazole-3-carboxamide] | 17 |
| O=C(NC1CCN(CC2CCC2)CC1)c1n[nH]c2ccc(-c3cccnc3)cc12 [Compound 1314, N-(1-(Cyclobutylmethyl)piperidin-4-yl)-5-(pyridin-3-yl)-1H-indazole-3-carboxamide] | 11 |
| NC1CN(c2cncc(-c3ccc4[nH]nc(C(=O)Nc5cccnc5)c4c3)n2)C1 [Compound 1317, 5-(6-(3-Aminoazetidin-1-yl)pyrazin-2-yl)-N-(pyridin-3-yl)-1H-indazole-3-carboxamide] | 1 |
| CN(C)Cc1ccc(NC(=O)c2n[nH]c3ccc(-c4cccnc4)cc23)cc1 [Compound 1324, N-(4-((Dimethylamino)methyl)phenyl)-5-(pyridin-3-yl)-1H-indazole-3-carboxamide] | 10 |
| CN(C)Cc1ccc(NC(=O)c2n[nH]c3ccc(-c4cccc(F)c4F)cc23)cc1 [Compound 1325, 5-(2,3-Difluorophenyl)-N-(4-((dimethylamino)methyl)phenyl)-1H-indazole-3-carboxamide] | 54 |
| O=C(Nc1ccc(CN2CCCC2)cc1)c1n[nH]c2ccc(-c3cccnc3)cc12 [Compound 1326, 5-(Pyridin-3-yl)-N-(4-(pyrrolidin-1-ylmethyl)phenyl)-1H-indazole-3-carboxamide] | 10 |
| CN1CCN(Cc2ccc(NC(=O)c3n[nH]c4ccc(-c5cccc(F)c5F)cc34)cc2)CC1 [Compound 1332, 5-(2,3-Difluorophenyl)-N-(4-((4-methylpiperazin-1-yl)methyl)phenyl)-1H-indazole-3-carboxamide] | 14 |
| CC(C)CNC(=O)c1n[nH]c2ccc(-c3ccc(F)nc3)cc12 [Compound 1335, 5-(6-Fluoropyridin-3-yl)-N-isobutyl-1H-indazole-3-carboxamide] | 62 |
| CC(C)CNC(=O)c1n[nH]c2ccc(-c3cccnc3F)cc12 [Compound 1336, 5-(2-Fluoropyridin-3-yl)-N-isobutyl-1H-indazole-3-carboxamide] | 22 |
| CN1CCC(N(C)C(=O)c2n[nH]c3ccc(-c4cccnc4)cc23)CC1 [Compound 1337, N-Methyl-N-(1-methylpiperidin-4-yl)-5-(pyridin-3-yl)-1H-indazole-3-carboxamide] | 2500 |
| CCN1CCC(NC(=O)c2n[nH]c3ccc(-c4cccc(OC)c4F)cc23)CC1 [Compound 1338, N-(1-Ethylpiperidin-4-yl)-5-(2-fluoro-3-methoxyphenyl)-1H-indazole-3-carboxamide] | 1800 |

Continued, values first:

| EC50 [nM] | Compound |
| --- | --- |
| 98 | O=C(NC1CCCC1)c1n[nH]c2ccc(-c3cncc(Cl)c3)cc12 [Compound 1279, 5-(5-Chloropyridin-3-yl)-N-cyclopentyl-1H-indazole-3-carboxamide] |
| 32 | O=C(NC1CCCC1)c1n[nH]c2ccc(-c3cncc(F)c3)cc12 [Compound 1280, N-Cyclopentyl-5-(5-fluoropyridin-3-yl)-1H-indazole-3-carboxamide] |
| 39 | CCN1CCC(NC(=O)c2n[nH]c3ccc(-c4cncc(Cl)c4)cc23)CC1 [Compound 1291, 5-(5-Chloropyridin-3-yl)-N-(1-ethylpiperidin-4-yl)-1H-indazole-3-carboxamide] |
| 27 | O=C(NC1CCN(CCF)CC1)c1n[nH]c2ccc(-c3cncc(Cl)c3)cc12 [Compound 1296, 5-(5-Chloropyridin-3-yl)-N-(1-(2-fluoroethyl)piperidin-4-yl)-1H-indazole-3-carboxamide] |
| 20 | O=C(NC1CCN(CC(F)F)CC1)c1n[nH]c2ccc(-c3cncc(Cl)c3)cc12 [Compound 1299, 5-(5-Chloropyridin-3-yl)-N-(1-(2,2-difluoroethyl)piperidin-4-yl)-1H-indazole-3-carboxamide] |
| 6 | CC(F)(F)CN1CCC(NC(=O)c2n[nH]c3ccc(-c4cccnc4)cc23)CC1 [Compound 1300, N-(1-(2,2-Difluoropropyl)piperidin-4-yl)-5-(pyridin-3-yl)-1H-indazole-3-carboxamide] |
| 23 | CC(F)(F)CN1CCC(NC(=O)c2n[nH]c3ccc(-c4cncc(F)c4)cc23)CC1 [Compound 1301, N-(1-(2,2-Difluoropropyl)piperidin-4-yl)-5-(5-fluoropyridin-3-yl)-1H-indazole-3-carboxamide] |
| 31 | CC(F)(F)CN1CCC(NC(=O)c2n[nH]c3ccc(-c4cncc(Cl)c4)cc23)CC1 [Compound 1302, 5-(5-Chloropyridin-3-yl)-N-(1-(2,2-difluoropropyl)piperidin-4-yl)-1H-indazole-3-carboxamide] |
| 117 | CC(C)N1CCC(NC(=O)c2n[nH]c3ccc(-c4cncc(C(F)F)c4)cc23)CC1 [Compound 1303, 5-(5-(Difluoromethyl)pyridin-3-yl)-N-(1-isopropylpiperidin-4-yl)-1H-indazole-3-carboxamide] |
| 44 | CC(C)CN1CCC(NC(=O)c2n[nH]c3ccc(-c4cncc(F)c4)cc23)CC1 [Compound 1306, 5-(5-Fluoropyridin-3-yl)-N-(1-isobutylpiperidin-4-yl)-1H-indazole-3-carboxamide] |
| 47 | CC(C)CN1CCC(NC(=O)c2n[nH]c3ccc(-c4cncc(Cl)c4)cc23)CC1 [Compound 1307, 5-(5-Chloropyridin-3-yl)-N-(1-isobutylpiperidin-4-yl)-1H-indazole-3-carboxamide] |
| 19 | CC(C)(F)CN1CCC(NC(=O)c2n[nH]c3ccc(-c4cncc(F)c4)cc23)CC1 [Compound 1310, N-(1-(2-Fluoro-2-methylpropyl)piperidin-4-yl)-5-(5-fluoropyridin-3-yl)-1H-indazole-3-carboxamide] |
| 30 | CC(C)(F)CN1CCC(NC(=O)c2n[nH]c3ccc(-c4cncc(Cl)c4)cc23)CC1 [Compound 1311, 5-(5-Chloropyridin-3-yl)-N-(1-(2-fluoro-2-methylpropyl)piperidin-4-yl)-1H-indazole-3-carboxamide] |
| 33 | O=C(NC1CCN(CC2CC2)CC1)c1n[nH]c2ccc(-c3cncc(F)c3)cc12 [Compound 1312, N-(1-(Cyclopropylmethyl)piperidin-4-yl)-5-(5-fluoropyridin-3-yl)-1H-indazole-3-carboxamide] |
| 870 | CC(C)(C)CN1CCC(NC(=O)c2n[nH]c3ccc(-c4cncc(F)c4)cc23)CC1 [Compound 1315, 5-(5-Fluoropyridin-3-yl)-N-(1-neopentylpiperidin-4-yl)-1H-indazole-3-carboxamide] |
| 12 | CC(C)CCN1CCC(NC(=O)c2n[nH]c3ccc(-c4cccnc4)cc23)CC1 [Compound 1316, N-(1-Isopentylpiperidin-4-yl)-5-(pyridin-3-yl)-1H-indazole-3-carboxamide] |
| 97 | CC(C)(F)CN1CCC(NC(=O)c2n[nH]c3ccc(-c4cnccn4)cc23)CC1 [Compound 1319, N-(1-(2-Fluoro-2-methylpropyl)piperidin-4-yl)-5-(pyrazin-2-yl)-1H-indazole-3-carboxamide] |
| 42 | CC(C)(F)CN1CCC(NC(=O)c2n[nH]c3ccc(-c4cccnc4F)cc23)CC1 [Compound 1320, N-(1-(2-Fluoro-2-methylpropyl)piperidin-4-yl)-5-(2-fluoropyridin-3-yl)-1H-indazole-3-carboxamide] |
| 14 | CC(C)(F)CN1CCC(NC(=O)c2n[nH]c3ccc(-c4ccc(F)nc4)cc23)CC1 [Compound 1321, N-(1-(2-Fluoro-2-methylpropyl)piperidin-4-yl)-5-(6-fluoropyridin-3-yl)-1H-indazole-3-carboxamide] |
| 534 | Cc1ncc(-c2ccc3[nH]nc(C(=O)NC4CCN(CC(C)(C)F)CC4)c3c2)cn1 [Compound 1322, N-(1-(2-Fluoro-2-methylpropyl)piperidin-4-yl)-5-(2-methylpyrimidin-5-yl)-1H-indazole-3-carboxamide] |
| 43 | O=C(NCC1CC1)c1n[nH]c2ccc(-c3cncc(Cl)c3)cc12 [Compound 1323, 5-(5-Chloropyridin-3-yl)-N-(cyclopropylmethyl)-1H-indazole-3-carboxamide] |
